Measured values published in US7880007B2, “Bicyclic substituted phenyl piperidine modulators of muscarinic receptors” (Vertex Pharmaceuticals Incorporated, priority 2004, dated 2011).

Key:
Format in all cases: cell-based
M4 muscarinic receptor = target: T1, M4 muscarinic receptor (Homo sapiens, UniProt P08173); test: Functional mobilization of intracellular calcium (FLIPR), M4-CHO cells; settings: for M4 Activity: M4-CHO cells, calcium mobilization (FLIPR)
T1 construct: expressed in transfected cells; host or cells: CHO (M4-CHO)
T1 sequence (P08173 1-479): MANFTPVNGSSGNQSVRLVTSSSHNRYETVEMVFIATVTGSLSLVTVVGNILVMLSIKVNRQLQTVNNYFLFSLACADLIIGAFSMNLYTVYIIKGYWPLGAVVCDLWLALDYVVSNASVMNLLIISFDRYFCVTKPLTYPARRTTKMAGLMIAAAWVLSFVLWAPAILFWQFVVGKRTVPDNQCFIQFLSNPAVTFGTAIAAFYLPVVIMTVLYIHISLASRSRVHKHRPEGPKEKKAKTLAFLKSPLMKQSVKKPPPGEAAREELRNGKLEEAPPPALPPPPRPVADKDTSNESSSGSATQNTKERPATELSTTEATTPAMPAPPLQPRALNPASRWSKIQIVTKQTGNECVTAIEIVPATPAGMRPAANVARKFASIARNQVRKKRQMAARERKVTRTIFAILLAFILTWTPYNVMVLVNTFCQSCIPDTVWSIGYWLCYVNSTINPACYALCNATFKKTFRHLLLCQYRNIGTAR
Method in brief: (§1)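 Calcium mobilisation read by FLIPR over 60 s (ex 488/em 540 nm) in recombinant muscarinic CHO lines loaded with calcium dye plus 1 mM probenecid. Compounds tested as agonists alone, or as inhibitors against EC80 carbachol after 15 min pre-incubation or co-addition; 0.5% DMSO; efficacy scaled to carbachol maximal response.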

M1 muscarinic receptor = target: T2, M1 muscarinic receptor (Homo sapiens, UniProt P11229); test: Functional mobilization of intracellular calcium (FLIPR), M1-CHO cells; settings: for M1 Activity: M1-CHO cells, calcium mobilization (FLIPR)
T2 construct: expressed in transfected cells; host or cells: CHO (M1-CHO)
T2 sequence (P11229 1-460): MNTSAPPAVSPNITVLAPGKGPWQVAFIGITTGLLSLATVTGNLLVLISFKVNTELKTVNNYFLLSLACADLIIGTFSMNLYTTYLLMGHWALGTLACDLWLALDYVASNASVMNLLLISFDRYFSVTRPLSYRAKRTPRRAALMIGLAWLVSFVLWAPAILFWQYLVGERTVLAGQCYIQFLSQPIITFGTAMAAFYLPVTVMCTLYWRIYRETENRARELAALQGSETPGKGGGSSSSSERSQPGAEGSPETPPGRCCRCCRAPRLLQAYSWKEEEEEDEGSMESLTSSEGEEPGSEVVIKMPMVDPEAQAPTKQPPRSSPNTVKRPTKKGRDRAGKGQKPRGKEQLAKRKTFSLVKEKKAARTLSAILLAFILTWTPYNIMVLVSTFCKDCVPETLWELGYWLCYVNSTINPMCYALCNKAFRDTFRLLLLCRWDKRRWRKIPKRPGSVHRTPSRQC
Method in brief: as §1

M2 muscarinic receptor = target: T3, M2 muscarinic receptor (Homo sapiens, UniProt P08172); test: Functional mobilization of intracellular calcium (FLIPR), M2-CHO cells; settings: for M2 Activity: M2-CHO cells, calcium mobilization (FLIPR)
T3 construct: expressed in transfected cells; host or cells: CHO (M2-CHO)
T3 sequence (P08172 1-466): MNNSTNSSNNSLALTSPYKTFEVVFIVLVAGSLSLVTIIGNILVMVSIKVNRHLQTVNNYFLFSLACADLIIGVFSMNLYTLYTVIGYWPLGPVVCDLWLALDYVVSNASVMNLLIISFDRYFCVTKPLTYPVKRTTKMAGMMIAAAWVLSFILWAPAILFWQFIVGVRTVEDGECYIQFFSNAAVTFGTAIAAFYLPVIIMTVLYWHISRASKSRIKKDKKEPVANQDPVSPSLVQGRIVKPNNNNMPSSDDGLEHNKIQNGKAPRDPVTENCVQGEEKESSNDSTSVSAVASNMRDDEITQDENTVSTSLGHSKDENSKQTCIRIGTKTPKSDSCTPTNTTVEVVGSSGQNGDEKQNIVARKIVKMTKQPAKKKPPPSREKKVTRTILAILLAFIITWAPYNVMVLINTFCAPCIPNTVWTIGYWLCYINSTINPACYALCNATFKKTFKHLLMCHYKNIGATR
Method in brief: as §1

M3 muscarinic receptor = target: T4, M3 muscarinic receptor (Homo sapiens, UniProt P20309); test: Functional mobilization of intracellular calcium (FLIPR), M3-CHO cells; settings: for M3 Activity: M3-CHO cells, calcium mobilization (FLIPR)
T4 construct: expressed in transfected cells; host or cells: CHO (M3-CHO)
T4 sequence (P20309 whole entry): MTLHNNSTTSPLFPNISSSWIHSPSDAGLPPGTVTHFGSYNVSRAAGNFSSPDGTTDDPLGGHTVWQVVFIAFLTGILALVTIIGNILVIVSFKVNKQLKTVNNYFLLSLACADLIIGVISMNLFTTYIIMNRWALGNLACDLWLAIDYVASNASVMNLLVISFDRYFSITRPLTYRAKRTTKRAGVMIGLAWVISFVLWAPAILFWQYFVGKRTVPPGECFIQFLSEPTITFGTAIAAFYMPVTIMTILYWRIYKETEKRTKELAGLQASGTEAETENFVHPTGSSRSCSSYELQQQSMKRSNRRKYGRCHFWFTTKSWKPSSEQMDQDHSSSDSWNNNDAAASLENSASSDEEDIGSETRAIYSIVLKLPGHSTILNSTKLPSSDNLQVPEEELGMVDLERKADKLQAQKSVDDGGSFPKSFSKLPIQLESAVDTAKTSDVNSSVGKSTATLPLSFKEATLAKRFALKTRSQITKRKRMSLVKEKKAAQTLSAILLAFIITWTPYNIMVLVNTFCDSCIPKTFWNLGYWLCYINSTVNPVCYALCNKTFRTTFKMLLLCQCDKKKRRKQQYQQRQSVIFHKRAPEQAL
Method in brief: as §1

[1] = 100% efficacy = maximum response obtained with the Carbachol control
[2] = 100% efficacy is the maximum response obtained with the Carbachol control

| SMILES | Emax (M4 muscarinic receptor; [1]) | Emax (M1 muscarinic receptor; [1]) | Emax (M2 muscarinic receptor; [1]) | Emax (M3 muscarinic receptor; [1]) | Emax (M4 muscarinic receptor; [2]) | Emax (M1 muscarinic receptor; [2]) | Emax (M2 muscarinic receptor; [2]) | Emax (M3 muscarinic receptor; [2]) | M4 Activity (M4 muscarinic receptor) | M1 Activity (M1 muscarinic receptor) | M2 Activity (M2 muscarinic receptor) | M3 Activity (M3 muscarinic receptor) |
| --- | --- | --- | --- | --- | --- | --- | --- | --- | --- | --- | --- | --- |
| COc1ccc(Cl)cc1C1(F)CCN(C[C@@H]2C[C@H]3C=C[C@H]2C3)CC1 [Compound 44] | 25 to 100% | 25 to 100% | 25 to 100% | < 25% | – | – | – | – | ++ (activity was measured to be from 1.0 μM to 5.0 μM) | + (activity was measured to be greater than 5.0 μM) | + (activity was measured to be greater than 5.0 μM) | + (activity was measured to be greater than 5.0 μM) |
| CCOC(=O)N1C2CCC1CC(N1CCC(c3ccc(F)cc3OC)CC1)C2 (stereo not drawn) [Compound 179] | 25 to 100% | 25 to 100% | < 25% | < 25% | – | – | – | – | +++ (activity was measured to be less than 1.0 μM) | +++ (activity was measured to be less than 1.0 μM) | + (activity was measured to be greater than 5.0 μM) | + (activity was measured to be greater than 5.0 μM) |
| CCOc1ccccc1C1CCN([C@H]2C[C@H]3CC[C@H]2C3)CC1 [Compound 68] | 25 to 100% | 25 to 100% | < 25% | < 25% | – | – | – | – | +++ (activity was measured to be less than 1.0 μM) | ++ (activity was measured to be from 1.0 μM to 5.0 μM) | + (activity was measured to be greater than 5.0 μM) | + (activity was measured to be greater than 5.0 μM) |
| COc1ccc(-c2cccc(C#N)c2)cc1C1CCN([C@H]2C[C@H]3CC[C@H]2C3)CC1 [Compound 97] | 25 to 100% | < 25% | < 25% | < 25% | – | – | – | – | + (activity was measured to be greater than 5.0 μM) | + (activity was measured to be greater than 5.0 μM) | + (activity was measured to be greater than 5.0 μM) | + (activity was measured to be greater than 5.0 μM) |
| COc1ccc(Cl)cc1C1(F)CCN(C2CCC3CCC2C3)CC1 (stereo not drawn) [Compound 83] | 25 to 100% | 25 to 100% | 25 to 100% | < 25% | – | – | – | – | ++ (activity was measured to be from 1.0 μM to 5.0 μM) | + (activity was measured to be greater than 5.0 μM) | + (activity was measured to be greater than 5.0 μM) | + (activity was measured to be greater than 5.0 μM) |
| CCOC(=O)N1C2CCC1CC(N1CCC(c3ccccc3OC)CC1)C2 (stereo not drawn) [Compound 202] | 25 to 100% | 25 to 100% | 25 to 100% | < 25% | – | – | – | – | +++ (activity was measured to be less than 1.0 μM) | +++ (activity was measured to be less than 1.0 μM) | ++ (activity was measured to be from 1.0 μM to 5.0 μM) | + (activity was measured to be greater than 5.0 μM) |
| CCOC(=O)N1C2CCC1CC(N1CCC(OC)(c3cc(F)ccc3OC)CC1)C2 (stereo not drawn) [Compound 118] | 25 to 100% | 25 to 100% | < 25% | < 25% | – | – | – | – | +++ (activity was measured to be less than 1.0 μM) | +++ (activity was measured to be less than 1.0 μM) | + (activity was measured to be greater than 5.0 μM) | + (activity was measured to be greater than 5.0 μM) |
| CCOC(=O)N1C2CCC1CC(N1CCC(c3cc(-c4ccc(C(C)(C)C#N)cc4)ccc3OC)CC1)C2 (stereo not drawn) [Compound 33] | 25 to 100% | 25 to 100% | < 25% | < 25% | – | – | – | – | ++ (activity was measured to be from 1.0 μM to 5.0 μM) | ++ (activity was measured to be from 1.0 μM to 5.0 μM) | + (activity was measured to be greater than 5.0 μM) | + (activity was measured to be greater than 5.0 μM) |
| CCOC(=O)N1C2CCC1CC(N1CCC(c3cc(-c4ccc(C(=O)NC)cc4)ccc3OC)CC1)C2 (stereo not drawn) [Compound 270] | 25 to 100% | 25 to 100% | < 25% | < 25% | – | – | – | – | +++ (activity was measured to be less than 1.0 μM) | +++ (activity was measured to be less than 1.0 μM) | + (activity was measured to be greater than 5.0 μM) | + (activity was measured to be greater than 5.0 μM) |

More lines, main results first:

| Emax (M4 muscarinic receptor; [1]) | Emax (M1 muscarinic receptor; [1]) | Emax (M2 muscarinic receptor; [1]) | Emax (M3 muscarinic receptor; [1]) | Emax (M4 muscarinic receptor; [2]) | Emax (M1 muscarinic receptor; [2]) | Emax (M2 muscarinic receptor; [2]) | Emax (M3 muscarinic receptor; [2]) | SMILES | M4 Activity (M4 muscarinic receptor) | M1 Activity (M1 muscarinic receptor) | M2 Activity (M2 muscarinic receptor) | M3 Activity (M3 muscarinic receptor) |
| --- | --- | --- | --- | --- | --- | --- | --- | --- | --- | --- | --- | --- |
| 25 to 100% | < 25% | < 25% | < 25% | – | – | – | – | CNC(=O)c1ccc(-c2ccc(OC)c(C3CCN(C4CC5CCC(C5)C4)CC3)c2)cc1Cl (stereo not drawn) [Compound 100] | ++ (activity was measured to be from 1.0 μM to 5.0 μM) | + (activity was measured to be greater than 5.0 μM) | + (activity was measured to be greater than 5.0 μM) | + (activity was measured to be greater than 5.0 μM) |
| – | – | – | – | 25 to 100% | 25 to 100% | < 25% | < 25% | Fc1ccccc1C1CCN(C2CCOCC2)CC1 [Compound 378] | +++ (activity was measured to be less than 1.0 μM) | + (activity was measured to be greater than 5.0 μM) | + (activity was measured to be greater than 5.0 μM) | + (activity was measured to be greater than 5.0 μM) |
| 25 to 100% | < 25% | < 25% | < 25% | – | – | – | – | COc1ccc(C(=O)c2ccsc2)cc1C1CCN([C@H]2C[C@H]3CC[C@H]2C3)CC1 [Compound 230] | +++ (activity was measured to be less than 1.0 μM) | + (activity was measured to be greater than 5.0 μM) | + (activity was measured to be greater than 5.0 μM) | + (activity was measured to be greater than 5.0 μM) |
| – | – | – | – | 25 to 100% | < 25% | < 25% | < 25% | COc1ccc(C(=O)c2ccoc2)cc1C1CCN([C@@H]2C[C@H]3CC[C@H]2C3)CC1 [Compound 416] | ++ (activity was measured to be from 1.0 μM to 5.0 μM) | + (activity was measured to be greater than 5.0 μM) | + (activity was measured to be greater than 5.0 μM) | + (activity was measured to be greater than 5.0 μM) |
| – | – | – | – | 25 to 100% | < 25% | < 25% | < 25% | COc1ccc(Cl)cc1C1(F)CCN(CC2CCOCC2)CC1 [Compound 418] | ++ (activity was measured to be from 1.0 μM to 5.0 μM) | ++ (activity was measured to be from 1.0 μM to 5.0 μM) | + (activity was measured to be greater than 5.0 μM) | + (activity was measured to be greater than 5.0 μM) |
| 25 to 100% | 25 to 100% | < 25% | < 25% | – | – | – | – | COc1ccc(-c2ccc(C#N)cc2)cc1C1CCN(C2CCCCC2)CC1 [Compound 342] | ++ (activity was measured to be from 1.0 μM to 5.0 μM) | + (activity was measured to be greater than 5.0 μM) | + (activity was measured to be greater than 5.0 μM) | + (activity was measured to be greater than 5.0 μM) |
